pKi: −log10 of the molar value. Where a SMILES comes first, the peptide text is derived from it. [ ]: non-standard residue; d: D form. The star is where a group is joined. Hydrocinnamoyl = O=C(CCc1ccccc1)*; Nle = CCCC[C@H](N)C(=O)O; Ac5c = NC1(C(=O)O)CCCC1; Deg = CCC(N)(CC)C(=O)O
Key:
Cathepsin B = Cathepsin B (Homo sapiens, UniProt P07858); assay: Inhibition of human liver cathepsin B
[1] = biological target: T1, Calpain-1 catalytic subunit (Sus scrofa, UniProt P35750); assay: Inhibition of pig erythrocyte mu-calpain
T1 sequence (P35750 whole entry): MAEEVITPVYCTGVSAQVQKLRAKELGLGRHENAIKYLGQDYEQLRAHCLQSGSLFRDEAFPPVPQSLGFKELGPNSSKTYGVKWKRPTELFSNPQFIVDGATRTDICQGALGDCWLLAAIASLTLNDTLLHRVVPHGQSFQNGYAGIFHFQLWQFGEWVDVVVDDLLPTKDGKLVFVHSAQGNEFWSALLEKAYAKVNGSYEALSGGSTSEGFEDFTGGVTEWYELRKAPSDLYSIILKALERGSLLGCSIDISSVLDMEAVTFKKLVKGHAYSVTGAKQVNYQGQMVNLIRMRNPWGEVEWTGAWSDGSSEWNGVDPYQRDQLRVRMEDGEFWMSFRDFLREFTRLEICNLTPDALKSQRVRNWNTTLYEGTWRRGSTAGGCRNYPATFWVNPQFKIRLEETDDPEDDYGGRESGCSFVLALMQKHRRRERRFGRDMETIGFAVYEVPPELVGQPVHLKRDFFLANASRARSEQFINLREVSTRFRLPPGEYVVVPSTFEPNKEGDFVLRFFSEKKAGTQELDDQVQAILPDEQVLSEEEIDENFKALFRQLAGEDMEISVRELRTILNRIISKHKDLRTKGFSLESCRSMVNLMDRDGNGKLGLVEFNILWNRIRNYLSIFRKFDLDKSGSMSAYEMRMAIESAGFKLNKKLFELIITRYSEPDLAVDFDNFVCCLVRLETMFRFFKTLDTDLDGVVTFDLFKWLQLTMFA

[2] = Selectivity ratio of Ki for human liver cathepsin B to Ki for pig erythrocyte mu-calpain

SMILES | pKi (Cathepsin B) | pKi [1] | Selectivity ratio [2]
CCCC[C@@H](C=O)NC(=O)[C@H](CC(C)C)NC(=O)[C@H](CC(C)C)NC(C)=O (Ac-Leu-Leu-[Nle]-aldehyde) | 6.82 | 6.72 | 
O=C[C@H](Cc1ccccc1)NC(=O)C1(NC(=O)CCc2ccccc2)CCCC1 (Hydrocinnamoyl-[Ac5c]-Phe-aldehyde) | 6.06 | 5.71 | 0.45
CCC(CC)(NC(=O)CCc1ccccc1)C(=O)N[C@H](C=O)Cc1ccccc1 (Hydrocinnamoyl-[Deg]-Phe-aldehyde) | 5.54 | 7.10 | 36.4
